Patent US20110178104A1, “Anti-Heparin Compounds” (POLYMEDIX INC., priority 2010, published 2011)
pEC50: −log10 of the molar value. Several values for one entry are separate records, joined by “and”; a condition that tells them apart may be missing. Identical values can stand only once.

Columns and labels:
fondaparinux = assay: FXa amidolytic assay (Example 10), fondaparinux; conditions: read-out: Fondap FXa EC50; fondaparinux 0.02 μg/mL; human antithrombin, bovine Factor Xa
Unfractionated heparin = assay: aPTT clotting assay, UFH 0.4 U/mL in plasma (Example 10); type: biochemical; conditions: unfractionated heparin 0.4 U/mL in plasma; aPTT clotting
Protocol: aPTT clotting Assay: Unfractionated heparin was mixed with plasma at a final concentration of 0.4 U/mL (or concentration which increases aPTT time to between 120 and 300 seconds). […] The ACL Elite Hemostasis analyzer (Beckman Coulter™) was used to add aPTT reagent (HemosIL SynthASil) to supplemented plasma. Clotting was initiated by addition of CaCl2 and time to clot was recorded.

tinzaparin = assay: FXa amidolytic assay (Example 10), tinzaparin; conditions: read-out: Tinzap FXa EC50; tinzaparin 0.1 ug/ml; human antithrombin, bovine Factor Xa
enoxaparin = assay: FXa amidolytic assay (Example 10), enoxaparin; conditions: read-out: Enox FXa EC50; enoxaparin 0.1 ug/ml; human antithrombin, bovine Factor Xa

pEC50 (fondaparinux) | pEC50 (Unfractionated heparin) | pEC50 (tinzaparin) | pEC50 (enoxaparin) | SMILES
5.98 | 5.61 | 6.75 | 6.56 | COc1ccc(NC(=O)[C@@H](CCC(=O)O)NC(=O)c2cc(NC(=O)[C@@H](CCCNC(=N)N)NC(=O)c3cc(NC(=O)[C@@H](CCCNC(=N)N)NC(=O)c4cc(NC(=O)[C@H](N)CCCNC(=N)N)ccc4OC)ccc3OC)ccc2OC)cc1C(N)=O [Compound 319]
5.54 | 5.80 | 6.74 | 6.57 | COc1ccc(NC(=O)[C@H](CCCNC(N)=O)NC(=O)c2cc(NC(=O)[C@H](CCCCN)NC(=O)c3cc(NC(=O)[C@H](CCCCN)NC(=O)c4cc(NC(=O)[C@@H](N)CCCCN)ccc4OC)ccc3OC)ccc2OC)cc1C(N)=O [Compound 259]
6.28 | 5.72 | 6.98 | 6.93 | COc1ccc(NC(=O)[C@H](CCCNC(=N)N)NC(=O)c2cc(NC(=O)[C@H](CCCNC(=N)N)NC(=O)c3cc(NC(=O)[C@@H](N)CCCNC(=N)N)ccc3OC)ccc2OC)cc1C(=O)N[C@@H](CCCNC(=N)N)C(=O)Nc1ccc(OCC(=O)O)c(C(N)=O)c1 [Compound 286]
< 5.00 | 5.49 | 6.27 | 6.06 | COc1ccc(NC(=O)[C@H](C)NC(=O)c2cc(NC(=O)[C@H](CCCCN)NC(=O)c3cc(NC(=O)[C@H](CCCCN)NC(=O)c4cc(NC(=O)[C@@H](N)CCCCN)ccc4OC)ccc3OC)ccc2OC)cc1C(N)=O [Compound 232]
5.63 | 5.73 | 6.59 | 6.35 | COc1ccc(NC(=O)[C@H](CCCCN)NC(=O)c2cc(NC(=O)[C@H](CCCCN)NC(=O)c3cc(NC(=O)[C@H](CCCCN)NC(=O)c4cc(NC(C)=O)ccc4OC)ccc3OC)ccc2OC)cc1C(N)=O [Compound 328]
5.31 | 5.56 | 6.83 | 6.60 | [2H]C(C([2H])C([2H])([2H])CN)[C@H](N)C(=O)Nc1ccc(OC)c(C(=O)N[C@@H](CCCCN)C(=O)Nc2ccc(OC)c(C(=O)N[C@@H](CCCCN)C(=O)Nc3ccc(OC)c(C(=O)N[C@@H](CCCCN)C(=O)Nc4ccc(OC)c(C(N)=O)c4)c3)c2)c1 (stereo partly drawn) [Compound 230]
< 5.00 | < 5.00 | 5.69 | 5.48 | COc1cc(OC)c(C(=O)N[C@H]2CC[C@@H](NC(=O)c3cc(C(=O)NCCN)c(OCCCCCN)cc3OCCCCCN)CC2)cc1C(=O)N[C@H]1CC[C@@H](N=C(N(C)C)N(C)C)CC1 [Compound 414]
5.60 | 5.84 | 6.82 | 6.63 | COc1ccc(NC(=O)[C@H](CCCCN)NC(=O)c2cc(NC(=O)[C@H](CCCCN)NC(=O)c3cc(NC(=O)[C@H](CCCCN)NC(=O)c4cc(NC(=O)[C@@H](N)CCCNC(N)=O)ccc4OC)ccc3OC)ccc2OC)cc1C(N)=O [Compound 256]
4.98 | 5.85 | 6.67 | 6.33 | COC(=O)c1cc(NC(=O)[C@H](CCCCN)NC(=O)c2cc(NC(=O)[C@H](CCCCN)NC(=O)c3cc(NC(=O)[C@H](CCCCN)NC(=O)c4cc(NC(=O)[C@@H](N)CCCCN)ccc4OC)ccc3OC)ccc2OC)ccc1OC [Compound 249]
5.84 | 5.88 | 6.89 | 6.69 | COc1ccc(NC(=O)[C@H](CCCCN)NC(=O)c2cc(NC(=O)[C@H](CCCCN)NC(=O)c3cc(NC(=O)[C@H](CCCNC(N)=O)NC(=O)c4cc(NC(=O)[C@@H](N)CCCCN)ccc4OC)ccc3OC)ccc2OC)cc1C(N)=O [Compound 257]
< 5.00 | 5.50 | 6.53 | 5.93 | COc1cc(OC)c(C(=O)N[C@H]2CC[C@@H](NC(=O)c3cc(C(=O)N4CCC(CN)CC4)c(OCCCCCN)cc3OCCCCCN)CC2)cc1C(=O)N[C@H]1CC[C@@H](NC(=O)c2cc(C(=O)N3CCC(CN)CC3)c(OCCCCCN)cc2OCCCCCN)CC1 [Compound 423]
5.72 | 6.04 | 6.63 | 6.57 | COc1ccc(NC(=O)[C@H](CCCCN)NC(=O)c2cc(NC(=O)[C@H](CCCCN)NC(=O)c3cc(NC(=O)[C@H](CCCCN)NC(=O)c4cc(NC(=O)[C@H](CCCCN)NC(=O)CCC(=O)O)ccc4OC)ccc3OC)ccc2OC)cc1C(N)=O [Compound 339]
6.04 | 5.52 | 6.69 | 6.63 | COc1ccc(NC(=O)[C@H](CCCCN)NC(=O)c2cc(NC(=O)[C@H](CCCCN)NC(=O)c3cc(NC(=O)[C@H](CCCCN)NC(=O)c4cc(NC(=O)[C@H](CCCCN)NC(=O)COCC(=O)O)ccc4OC)ccc3OC)ccc2OC)cc1C(N)=O [Compound 345]
5.29 | 5.63 | 6.44 | 6.20 | COc1ccc(NC(=O)[C@H](CCCCN)NC(=O)c2cc(NC(=O)[C@H](CCCCN)NC(=O)c3cc(NC(=O)[C@H](CCCCN)NC(=O)c4cc(NC(=O)[C@@H](N)CCCCN)ccc4OC)ccc3OC)ccc2OC)cc1C(=O)N[C@@H](CCC(=O)O)C(=O)O [Compound 276]
6.58 | 5.54 | 6.62 | 6.61 | COc1ccc(NC(=O)[C@H](CCCNC(=N)N)NC(=O)c2cc(NC(=O)[C@H](CCCNC(=N)N)NC(=O)c3cc(NC(=O)[C@H](CCCNC(=N)N)NC(=O)c4cc(NC(C)=O)ccc4OC)ccc3OC)ccc2OC)cc1C(=O)NCC(=O)O [Compound 299]
4.97 | < 5.00 | 6.36 | 6.30 | CSc1ccc(NC(=O)[C@H](CCCNC(=N)N)NC(=O)c2cc(NC(=O)[C@H](CCCNC(=N)N)NC(=O)c3cc(NC(=O)[C@H](CCCNC(=N)N)NC(=O)c4cc(NC(=O)[C@@H](N)CCCNC(=N)N)ccc4SC)ccc3SC)ccc2SC)cc1C(N)=O [Compound 235]
6.36 | 4.82 | 6.53 | 6.54 | COc1ccc(NC(=O)[C@@H](CCCNC(=N)N)NC(=O)c2cc(NC(=O)[C@@H](CCCNC(=N)N)NC(=O)c3cc(NC(=O)[C@@H](CCCNC(=N)N)NC(=O)c4cc(NC(C)=O)ccc4OC)ccc3OC)ccc2OC)cc1C(=O)N[C@@H](Cc1ccc(O)cc1)C(=O)O [Compound 296]
5.69 | 6.17 | 6.61 | 6.41 | COc1ccc(NC(=O)[C@H](CCCCN)NC(=O)c2cc(NC(=O)[C@H](CCCCN)NC(=O)c3cc(NC(=O)[C@H](CCCCN)NC(=O)c4cc(NC(=O)[C@H](CCCCN)NC(=O)CCCC(=O)O)ccc4OC)ccc3OC)ccc2OC)cc1C(N)=O [Compound 344]
5.81 | 5.82 | 6.88 | 6.70 | COc1ccc(NC(=O)[C@H](CCCCN)NC(=O)c2cc(NC(=O)[C@H](CCCNC(N)=O)NC(=O)c3cc(NC(=O)[C@H](CCCCN)NC(=O)c4cc(NC(=O)[C@@H](N)CCCCN)ccc4OC)ccc3OC)ccc2OC)cc1C(N)=O [Compound 258]
5.40 and 5.50 | 5.88 and 5.84 | 6.93 and 6.90 | 6.59 and 6.65 | COc1ccc(NC(=O)[C@H](CCCCN)NC(=O)c2cc(NC(=O)[C@H](CCCCN)NC(=O)c3cc(NC(=O)[C@H](CCCCN)NC(=O)c4cc(NC(=O)[C@@H](N)CCCCN)ccc4SC)ccc3OC)ccc2OC)cc1C(N)=O [Compound 245]
5.10 | 5.91 | 6.72 | 6.46 | COc1ccc(NC(=O)[C@H](CCCCN)NC(=O)c2cc(NC(=O)[C@H](CCCCN)NC(=O)c3cc(NC(=O)[C@H](CCCCN)NC(=O)c4cccc(NC(=O)[C@@H](N)CCCCN)c4)ccc3OC)ccc2OC)cc1C(N)=O [Compound 216]
< 5.00 | < 5.00 | < 5.30 | < 5.30 | COc1cc(OC)c(C(=O)N[C@H]2CC[C@@H](NC(=O)c3cc(C(=O)N[C@H]4CC[C@@H](N=C(N(C)C)N(C)C)CC4)c(OC)cc3OC)CC2)cc1C(=O)NC1CCNCC1 [Compound 418]
5.74 | 5.68 | 6.80 | 6.68 | COc1ccc(NC(=O)[C@H](CCCCN)NC(=O)c2cc(NC(=O)[C@H](CCCCN)NC(=O)c3cc(NC(=O)[C@H](CCCCN)NC(=O)c4cc(C(=O)NCCCCCN)c(OC)cc4OC)ccc3OC)ccc2OC)cc1C(N)=O [Compound 248]
5.17 | 5.71 | 6.33 | 5.99 | COc1ccc(NC(=O)[C@H](CCCCN)NC(=O)c2cc(NC(=O)[C@H](CCCCN)NC(=O)c3cc(NC(=O)[C@H](CCCCN)NC(=O)c4cc(N)ccc4OC)ccc3OC)ccc2OC)cc1C(N)=O [Compound 327]
< 5.00 | < 5.00 | < 5.30 | < 5.30 | COc1ccc(NC(=O)[C@H](CCCCN)NC(=O)c2cc(NC(=O)[C@H](CCCCN)NC(=O)c3cc(NC(=O)[C@H](CCCCN)NC(=O)c4cc(NC(=O)[C@@H](N)CCCCN)ccc4OC)ccc3SC)ccc2OC)cc1C(N)=O [Compound 251]
< 5.00 | < 5.00 | < 5.30 | < 5.30 | COc1cc(OC)c(C(=O)N[C@H]2CC[C@@H](NC(=O)c3cc(C(=O)N[C@H]4CC[C@@H](N=C(N(C)C)N(C)C)CC4)c(OC)cc3OC)CC2)cc1C(=O)NCCCN [Compound 405]
5.35 | 5.14 | 6.10 | 5.99 | COc1ccc(NC(=O)[C@H](CCCNC(=N)N)NC(=O)c2cc(NC(=O)[C@H](CCCNC(=N)N)NC(=O)c3cc(NC(=O)[C@H](C)NC(=O)CCCCNC(=N)N)ccc3OC)ccc2OC)cc1C(N)=O [Compound 224]
